Measured values from US5292751A, “5,7-dihydroxy-2-methyl-8-(4-(3-hydroxy-1-(1-propyl))pip eridinyl)-4H-1-benzopyran-4-one, its preparation and its use” (priority 1991, dated 1994).
Where two headings read alike, the source gives them in different places.

Legend:
[1] = type: in vivo; details: for Therapeutic index (LD50 ED50): LD50 over carrageenin ED50
Method: 1. Acute inflammation model:
Systemic anti-inflammatory action on carrageenin-induced paw oedema in rats.
Male Charles Foster rats (120-150 g) were fasted for 18 hours, with water ad libitum. The test compound suspended in Tween^R 80 and 0.5% C.M.C. was administered orally. The control group received Tween 80 and 0.5% C.M.C. 0.05 ml of 0.5% carrageenin suspension was injected subcutaneously into the plantar region of the left hind paw. Using a Maclab differential volume meter, the paw volume was determined before the carrageenin injection and 3 and 6 hours after the injection. The percentage decrease in paw volume was calculated by the following equation: [formula] The ED50 value was calculated from the dose/response curve. Six animals were used for each group.

in vivo [2] = details: po, rat
in vivo [3] = type: in vivo; details: for potentiation of the secondary arthritic response: p.o. per day
Method: 2. Adjuvant induced arthritis (developing) in Rats
Female Charles Foster rats weighing 150-180 g were sorted into groups (10 rats/group). Each animal received 10 μl of 1% suspension of mycobacterium tuberculli in paraffin oil, intradermally, at the base of the tail. Drug treatment was instituted on the day of the induction of arthritis and continued for 21 days. The body weight of each rat was noted prior to the adjuvant suspension injection and subsequently all throughout for 21 days. Volumes of both hind paws were recorded on the day of injection and subsequently from 7 days onwards till the end of the experiment.

[4] = rat, p.o., carrageenin paw oedema, from dose/response curve

Compound | therapeutic index, comparison in words ([1]; compared with compounds B and C) | ED50, mg/kg p.o. [1, 4] | Therapeutic index (LD50 ED50) ([1]; rat, p.o.) | LD50 (in vivo [2]) | deaths or toxic side effects (in vivo [3]; 30 mg/kg, p.o./day, 21 days) | inhibition of adjuvant arthritis (in vivo [3]; 1.25, 2.5, 5 and 10 mg/kg/day, p.o., 21 days) | ED50, mg/kg p.o. ([1]; po) | potentiation of the secondary arthritic response (in vivo [3]; 3 mg/kg) | potentiation of the secondary arthritic response (in vivo [3]; 9 mg/kg) | symptoms of cytotoxicity (in vivo [3]; 18 mg/kg, p.o./day) | inhibition of adjuvant arthritis (in vivo [3]; 18 mg/kg, p.o./day, may be due to toxicity) | response in adjuvant arthritis (in vivo [3]; 3, 9, 18 and 27 mg/kg/day p.o., 21 days) | therapeutic range (in vivo [3]; p.o., daily dosing) | inhibition of adjuvant arthritis (in vivo [3]; 0.1, 1 and 10 mg/kg, p.o., 21 days) | mortality (in vivo [3]; rat, in vivo, po, 10 mg/kg/day, 10 mg/kg, p.o./day, between 9th and 11th day of administration)
CCCN1CC[C@H](c2c(O)cc(O)c3c(=O)cc(C)oc23)[C@H](O)C1 (single isomer, unassigned) [Compound A] | favourable therapeutic index over compounds B and C | 20.0 mg/kg | 32.5 | 650 mg/kg | No deaths or toxic side effects were observed | dose-dependent and significant inhibition | – | – | – | – | – | – | – | – | –
Cc1cc(=O)c2c(O)cc(O)c(C3CCN(C)CC3O)c2o1 (stereo not drawn) [Compound B] | – | – | – | – | – | – | 9.0 mg/kg | 58.6% | 64.9% | weight loss and severe diarrhoea | significant inhibition | biphasic response | narrow therapeutic range | – | –
CN1CCC(c2c(O)cc(O)c3c(=O)cc(-c4ccccc4)oc23)C(O)C1 (stereo not drawn) [Compound C] | – | 1.3 mg/kg | 20.76 | 27 mg/kg | – | – | – | – | – | – | – | – | – | No inhibition of adjuvant arthritis was seen at any of the doses tested | 50%
